Article PMC7472660 (Chemical Science, 2019)

Molecular target: prostate-specific membrane antigen (PSMA) (Homo sapiens, UniProt Q04609)
Experiment: radioligand displacement of […]mTc-MIP-1427 on PSMA+ PC-3 PiP cells
Type: cell-based

Sequence of prostate-specific membrane antigen (PSMA) (Q04609 whole entry): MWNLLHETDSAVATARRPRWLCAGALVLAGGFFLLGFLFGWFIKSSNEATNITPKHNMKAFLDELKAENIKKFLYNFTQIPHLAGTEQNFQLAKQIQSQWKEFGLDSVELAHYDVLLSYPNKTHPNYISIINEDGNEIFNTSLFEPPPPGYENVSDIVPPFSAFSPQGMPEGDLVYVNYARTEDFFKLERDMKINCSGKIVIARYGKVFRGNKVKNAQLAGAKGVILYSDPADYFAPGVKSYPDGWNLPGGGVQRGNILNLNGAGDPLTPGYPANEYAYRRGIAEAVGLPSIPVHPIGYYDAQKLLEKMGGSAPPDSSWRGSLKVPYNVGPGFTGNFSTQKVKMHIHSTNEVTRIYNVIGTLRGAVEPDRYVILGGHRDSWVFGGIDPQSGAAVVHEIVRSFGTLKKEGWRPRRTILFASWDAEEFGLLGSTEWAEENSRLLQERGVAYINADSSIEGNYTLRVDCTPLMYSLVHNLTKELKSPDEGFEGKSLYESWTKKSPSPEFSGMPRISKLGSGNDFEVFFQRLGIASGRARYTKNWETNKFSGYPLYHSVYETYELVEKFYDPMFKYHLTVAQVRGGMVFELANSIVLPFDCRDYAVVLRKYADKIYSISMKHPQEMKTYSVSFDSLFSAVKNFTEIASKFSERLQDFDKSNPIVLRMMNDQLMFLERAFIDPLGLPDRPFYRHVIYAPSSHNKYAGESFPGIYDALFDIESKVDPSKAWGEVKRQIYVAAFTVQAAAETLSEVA

For Sc(DOTA)-DUPA, the Ki was 222 ± 186 nM.
Sc(picaga)-DUPA was tested, and the Ki was 1.6 ± 0.4 nM.
